Columns and labels:
intact female rats = test: 6-month treatment, fat accumulation in intact female rats receiving or not LHRH-A (Example 5); type: in vivo, Rattus norvegicus; conditions: 6-month LHRH-A treatment
Protocol: The objective of this study is to determine the effect on fat of treatment with EM-652.HCl and dehydroepiandrosterone (DHEA) in intact female rats receiving or not a luteinizing hormone releasing hormone agonist (LHRH-A, LHRH ethylamide diacetate). For this purpose, intact female rats, treated or not with LHRH-A (2 μg/rat), received daily administration of EM-652.HCl (2.5 mg/kg) and DHEA (100 mg/kg), alone or in combination, for 6 months. EM-652.HCl was administered orally, DHEA was applied topically while LHRH-A was injected subcutaneously. All treatments were administered once daily.
One hundred twenty rats were separated into 8 groups of 15 animals for conduct of the study outlined below:
The LHRH-A is available in solution at a concentration of 1.0 mg/ml. We diluted this concentrated solution (in order to obtain a final concentration of 0.004 mg/ml) by using the following vehicle: 0.3% Sodium Chloride and 0.25% Sodium Phosphate monobasic, monohydrate in water. The sodium hydroxide (aqueous) was used to adjust the pH between 5.6-6.2.
Dosing suspensions/solutions were prepared every two weeks according to the most recent body weight (group mean) except for the LHRH-A solution. For EM-652.HCl administered orally, the vehicle (0.4% methylcellulose) was added to the tested compound, previously weighed into a glass bottle, at least 48 hours prior to the first dosing day. To ensure the homogeneity of dosing suspension, it was stirred at least 48 hours at 2 to 8 C. Dosing suspension was kept at 2 to 8 C. For DHEA solution applied topically, the ethanol was added to DHEA and the mix were agitated until dissolution of DHEA. Then, the polypropylene glycol was added and the solution agitated until homogeneity. Dosing solution was kept at 2 to 8 C. For LHRH-A solution injected subcutaneously, a dilution of the concentrated solution using the appropriate vehicle was prepared every month. Dosing solution was kept at 2 to 8 C.
The administration of tested compounds or vehicle was given from on Study Day 1 of the protocol. The tested compounds were given as suspension in 0.4% methylcellulose by oral gavage (0.5 ml/gavage/rat) once daily or were applied topically in 50% ethanol-50% propylene glycol (0.5 ml/application/rat) once daily. Rats from groups 5 to 8 received also the LHRH-A once daily by subcutaneous injection (0.5 ml/injection/rat). Rats not receiving a tested compound orally and/or topically received the appropriate vehicle alone.
Body composition was measured on whole skeleton of animal under Isoflurane-induced anesthesia using dual energy x-ray absorptiometry (DEXA; QDR 4500A, Hologic) during the acclimation period and after 6 months of treatment.

[1] = test system: ovariectomized female rats; test: SERM comparison, energy balance and lipid-lipoprotein metabolism (Example 10); type: in vivo, Rattus norvegicus; conditions: OVX rats, 20 days
Protocol: For this purpose, tested compounds were administered by oral gavage for 20 days (0.5 mg/rat for each compound; 0.5 ml/rat) in 0.4% methylcellulose to ovariectomized female rats.
d) Diet: • During acclimation period, rats received a certified rodent diet (Lab Diet #5002, pellet) and tap water ad libitum while during study period, they received a high carbonhydrate diet (diet #3) and tap water ad libitum. The diet was composed of (g/100 g): Corn starch, 31.2; Dextrose, 31.2; Casein, 20.0; corn oil, 6.4; dl-Methionine, 0.3; Vitamine mix, 1.0; AIN-76 mineral mix, 4.9; fiber, 5.0. Rats were fasted (with access to water only) around 07 h00 the morning of their necropsy Randomization:
Test group: Seventy-seven rats were assigned to 8 groups of 9-10 rats for conduct of the study outlined below.
On day 0 of the study, rats from group 2 to 8 were ovariectomized (by bilateral flank incision) under Isoflurane anesthesia. Rats from group 1 were sham-operated.
Rats were weighed on day 0 (surgery) and then, every 2 days during study period as well as on the day of necropsy.
Food consumption was evaluated every 2 days.
In order to determine the effect of treatments on fat percentage, body composition was measured on Day 17 of the study using dual energy x-ray absorptiometry (DEXA; QDR 4500A, Hologic, Waltham, Mass.).
On day 21 of the study, approximately 24 hours after the last dosing and 6 hours of fasting, animals under Ketamine-Xylazine anesthesia were killed by exsanguination at the abdominal aorta.
Blood lipids (Total cholesterol and Triglycerides) and glucose were measured on frozen serum samples using the Boehringer Mannheim Diagnostic Hitachi 911 Analyzer (Boehringer Mannheim Diagnostic Laboratory Systems). Circulating hormones and substrates (Insulin and leptin) were measured on serum sample using the following kits: • Insulin: Linco RIA kit • Leptin: Linco RIA kit Organs and Tissues Collected
The following tissues were collected and weighed: • Muscle (right soleus and right VLM), fat (right retroperitoneal and right inguinal), and brown adipose tissue.
A piece of ˜0.1 g of all tissues (except uterus and vagina) were frozen in liquid nitrogen and kept at −80 C for later determination of lipoprotein-lipase (LPL) activity.

ovariectomized rat = test: 35-week treatment, total body fat and body weight of ovariectomized rat (Example 1); type: in vivo; conditions: OVX rats; for Body Weight at Necropsy: 37 weeks
Protocol: The animals were housed three per cage and were allowed free access to tap water and a pelleted certified rodent feed (Lab Diet 5002, Ralston Purina, St-Louis, Mo.). The experiment was conducted in a Canadian Council on Animal Care approved facility in accordance with the CCAC Guide for Care and Use of Experimental Animals. […] The appropriate compound or vehicle alone was given once daily by oral gavage in 0.5 ml/rat for 37 weeks. Approximately 24 hours after the last dosing, overnight fasted animals were killed by exsanguination at the abdominal aorta under isoflurane anesthesia. After 35 weeks of treatment, individual rats under anesthesia with isoflurane had their whole body skeleton as well as their right femur scanned using dual energy x-ray absorptiometry (DEXA; QDR 4500A, Hologic, Waltham, Mass.) and a Regional High Resolution Scan software. The scan field size used for the whole body was 30.492×17.912 cm, the resolution was 0.1512×0.0640 cm and the scan speed was 2.499 mm/sec. The fat body composition of the whole body was determined. Data are expressed as the means±SEM. Statistical significance was determined according to the multiple-range test of Duncan-Kramer (1956).

[2] = test system: ovariectomized female rats; test: 34-week treatment with ethynyl estradiol, EM-652.HCl, Raloxifene and DHEA, body fat (Example 7); type: in vivo, rat; conditions: OVX rats, 34 weeks
Protocol: The objective of this study was to assess the effect of a combined treatment with EM-652.HCl, and DHEA on body fat and body weight parameters in ovariectomized rats. For this purpose, ovariectomized rats received daily administration of EM-652.HCl (1 mg/kg), and DHEA (80 mg/kg) alone or in combination, for 34 weeks. EM-652.HCl was administered orally while DHEA was applied topically on dorsal skin. One group of animals was orally treated with 17-ethynylestradiol (0.1 mg/kg) and Raloxifene (EM-1105; 1 mg/kg) for comparison.
Ten to twelve week-old female Sprague-Dawley rats (Crl:CD(SD)Br) weighing approximately 235-250 g at start of treatment were used. Eighty rats were randomly distributed between 7 groups of 11 to 12 animals per group as follows: 1) Intact control; 2) OVX control; 3) OVX+EE2 (0.1 mg/kg); 4) OVX+raloxifene (1 mg/kg); 5) OVX+EM-652.HCl (1 mg/kg); 6) OVX+DHEA (80 mg/kg); 7) OVX+EM-652.HCl+DHEA. On day 1 of the study, the animals of the appropriate groups were bilaterally ovariectomized (OVX) under isoflurane anesthesia. EM-652.HCl, raloxifene and EE2 (Steraloids) were administered once daily by oral gavage as suspension in 0.4% methylcellulose (0.5 ml/rat) for 34 weeks while DHEA was applied topically once daily on dorsal skin as a solution in 50% ethanol-50% propylene glycol (0.5 ml/rat) for the same time period. Approximately 24 hours after the last dosing, overnight fasted animals were killed by exsanguination at the abdominal aorta under isoflurane anesthesia. Left and right retroperitoneal adipose tissues were collected and weighed.
After 34 weeks of treatment, individual rats under anesthesia with isoflurane had their whole body skeleton scanned using dual energy x-ray absorptiometry (DEXA; QDR 4500A, Hologic, Waltham, Mass.) and a Regional High Resolution Scan software. The body composition (including fat percentage) was determined.
Data were expressed as the means±SEM.

[3] = high carbohydrate diet, 0.5 mg/rat oral gavage
[4] = EE2 0.1, Raloxifene 1, EM-652.HCl 1 mg/kg oral, DHEA 80 mg/kg topical

## LHRH ethylamide diacetate [LHRH-A]
Intact female rats
  increase of the percentage of body fat: 58%

## Cl.O=C(c1ccc(OCCN2CCCCC2)cc1)c1c(-c2ccc(O)cc2)sc2cc(O)ccc12 [Raloxifene]
[1]; 0.5 mg/rat
  Serum insulin (in words): decreased
[1]; [3]
  Brown adipose tissue Lipoprotein lipase activity: 960 ± 116 μU/g protein
  Brown adipose tissue weight: 0.307 ± 0.26 g
  Cumulative food intake: 307 ± 8 g
  Serum glucose: 13.8 ± 1.2 mmol/L
  Serum insulin: 0.077 ± 0.10 nmol/L
  Serum leptin: 1.39 ± 0.30 ng/mL
  Serum total cholesterol: 1.19 ± 0.08 mmol/L
  Serum triglycerides: 1.20 ± 0.35 mmol/L
  Soleus muscle Lipoprotein lipase activity: 10.2 ± 2.0 μU/g protein
  Soleus muscle weight: 0.099 ± 0.003 g
  Total weight: 230 ± 3 g
  VastusLateralis muscle weight: 0.795 ± 0.055 g
  White adipose tissue inguinal Lipoprotein lipase activity: 579 ± 46 μU/g protein
  White adipose tissue inguinal weight: 0.245 ± 0.047 g
  White adipose tissue retroperitoneal Lipoprotein lipase activity: 1510 ± 52 μU/g protein
  White adipose tissue retroperitoneal weight: 1.32 ± 0.24 g
Ovariectomized rat; 0.01 mg/kg orally once daily
  Body Weight at Necropsy: 439 ± 13 g
Ovariectomized rat; 0.03 mg/kg orally once daily
  Body Weight at Necropsy: 451 ± 14 g
Ovariectomized rat; 0.1 mg/kg orally once daily
  Body Weight at Necropsy: 389 ± 14 g
Ovariectomized rat; 0.3 mg/kg orally once daily
  Body Weight at Necropsy: 367 ± 9 g
Ovariectomized rat; 1 mg/kg orally once daily
  Body Weight at Necropsy: 342 ± 12 g
Ovariectomized rat; 0.01-1 mg/kg orally once daily, 35 weeks, FIG. 1
  effect on body fat (DEXA): less active than EM-800
[2]
  increment of body fat and retroperitoneal adipose tissue by ovariectomy: prevented
[2]; DEXA, EE2 0.1, Raloxifene 1, EM-652.HCl 1 mg/kg oral, DHEA 80 mg/kg topical
  Fat %: 22.8 ± 1.6%
[2]; [4]
  Left retroperitoneal adipose tissue: 1.41 ± 0.13 g
  Right retroperitoneal adipose tissue: 1.29 ± 0.12 g
